Test results as given in patent publication US6392083B1, “Process for producing salts of cyanobenzylamines” (Showa Denko K.K., priority 1999, dated 2002).

How the values were obtained:
[1] = Bulk density measured with Powder-tester Type PT-N; type: physicochemical; settings: dried salt powder; Powder-tester Type PT-N (Hosokawa Micron); hydrochloride
Description: The bulk density was measured with a Powder-tester Type PT-N (product of Hosokawa Micron).

[2] = Description: These two compounds are difficult to separate through distillation due to the small difference between their respective boiling points.

bulk density [1]	SMILES	water solubility [2]
0.5 g/mL	Cl.N#Cc1ccc(CN)cc1 [Example 7, p-cyanobenzylamine hydrochloride]	
0.2 g/mL	Cl.N#Cc1ccc(CN)cc1 [Comparative Example, p-Cyanobenzylamine hydrochloride, reference compound]	
0.3 g/mL	Cl.N#Cc1ccc(CN)cc1 [Example 1, p-cyanobenzylamine hydrochloride]	
	Cl.N#Cc1ccc(CN)cc1 [p-cyanobenzylamine hydrochloride]	much lower than that of p-xylylenediamine hydrochloride
